From patent publication US12258355B2, “Probes for imaging huntingtin protein” (CHDI Foundation, Inc., priority 2014, dated 2025)

Biological target: T1, Q46 protein aggregates (Homo sapiens, UniProt P42858)
T1 construct: fused on or other part: GST at the N-terminus, cut off with thrombin before the test to start aggregation; The wells held aggregated Q46 without GST
Experiment: Q46 radioligand binding assay (RBA)
Conditions: 10 nM ligand [3H3]MK-3328
Description: Q46 Radioligand Binding Assay
For radioligand binding assays (RBA) GST-Q46 protein was generated based on a previous publication (Scherzinger et al. Cell, Vol. 90, 549-558, Aug. 8, 1997). For experiments 33 μM GST-Q46 was incubated with 150 μg/mL thrombin in assay buffer (150 mM NaCl, 50 mM Tris pH 8.0) and 2 mM CaCl2 for 16 hours at 37° C. Aggregated Q46 was pelleted by centrifugation for 5 minutes at 13,000 rpm in a bench top centrifuge and re-dissolved in the same volume of assay buffer. Test compounds were prepared by titration in DMSO at 11 concentrations from 33 μM to 1 nM. For the RBA, Q46 protein aggregates and test compounds were pre-incubated in assay buffer for 20 minutes at room temperature, in 140 μL/well in a 96-well plate (pp, round bottom). Then, ligand was added in 10 μL/well and incubated for 60 minutes at 37° C. Final assay concentrations were 1 μM to 30 pM test compound, 5 μM Q46 protein (equivalent monomer concentration) and 10 nM ligand [^3H3]MK-3328 (Harrision et al., ACS Med. Chem. Lett., 2 (2011), pp 498-502). Samples were transferred onto GF/B filter plates and washed 2× with 200 μL PBS using a Filtermate Harvester. After drying filter plates for 1 hour at 37° C., the back of the plates were sealed with foil and 30 μL/well scintillation fluid (Packard MicroScint 40) added, incubated for 15 minutes in the dark and counted in a TopCount reader. For analysis, replicate data from independent assay plates were normalized towards 0% and 100% inhibition using control wells of vehicle (0% inhibition) and 3 μM unlabelled MK-3328 (100% inhibition). IC50 values were determined with a sigmoidal inhibition model with four variables (top, bottom, slope, IC50) in a global fit using the normalized replicate data.

T1 sequence (P42858 with tags, fused parts or gaps with the stated changes, form open): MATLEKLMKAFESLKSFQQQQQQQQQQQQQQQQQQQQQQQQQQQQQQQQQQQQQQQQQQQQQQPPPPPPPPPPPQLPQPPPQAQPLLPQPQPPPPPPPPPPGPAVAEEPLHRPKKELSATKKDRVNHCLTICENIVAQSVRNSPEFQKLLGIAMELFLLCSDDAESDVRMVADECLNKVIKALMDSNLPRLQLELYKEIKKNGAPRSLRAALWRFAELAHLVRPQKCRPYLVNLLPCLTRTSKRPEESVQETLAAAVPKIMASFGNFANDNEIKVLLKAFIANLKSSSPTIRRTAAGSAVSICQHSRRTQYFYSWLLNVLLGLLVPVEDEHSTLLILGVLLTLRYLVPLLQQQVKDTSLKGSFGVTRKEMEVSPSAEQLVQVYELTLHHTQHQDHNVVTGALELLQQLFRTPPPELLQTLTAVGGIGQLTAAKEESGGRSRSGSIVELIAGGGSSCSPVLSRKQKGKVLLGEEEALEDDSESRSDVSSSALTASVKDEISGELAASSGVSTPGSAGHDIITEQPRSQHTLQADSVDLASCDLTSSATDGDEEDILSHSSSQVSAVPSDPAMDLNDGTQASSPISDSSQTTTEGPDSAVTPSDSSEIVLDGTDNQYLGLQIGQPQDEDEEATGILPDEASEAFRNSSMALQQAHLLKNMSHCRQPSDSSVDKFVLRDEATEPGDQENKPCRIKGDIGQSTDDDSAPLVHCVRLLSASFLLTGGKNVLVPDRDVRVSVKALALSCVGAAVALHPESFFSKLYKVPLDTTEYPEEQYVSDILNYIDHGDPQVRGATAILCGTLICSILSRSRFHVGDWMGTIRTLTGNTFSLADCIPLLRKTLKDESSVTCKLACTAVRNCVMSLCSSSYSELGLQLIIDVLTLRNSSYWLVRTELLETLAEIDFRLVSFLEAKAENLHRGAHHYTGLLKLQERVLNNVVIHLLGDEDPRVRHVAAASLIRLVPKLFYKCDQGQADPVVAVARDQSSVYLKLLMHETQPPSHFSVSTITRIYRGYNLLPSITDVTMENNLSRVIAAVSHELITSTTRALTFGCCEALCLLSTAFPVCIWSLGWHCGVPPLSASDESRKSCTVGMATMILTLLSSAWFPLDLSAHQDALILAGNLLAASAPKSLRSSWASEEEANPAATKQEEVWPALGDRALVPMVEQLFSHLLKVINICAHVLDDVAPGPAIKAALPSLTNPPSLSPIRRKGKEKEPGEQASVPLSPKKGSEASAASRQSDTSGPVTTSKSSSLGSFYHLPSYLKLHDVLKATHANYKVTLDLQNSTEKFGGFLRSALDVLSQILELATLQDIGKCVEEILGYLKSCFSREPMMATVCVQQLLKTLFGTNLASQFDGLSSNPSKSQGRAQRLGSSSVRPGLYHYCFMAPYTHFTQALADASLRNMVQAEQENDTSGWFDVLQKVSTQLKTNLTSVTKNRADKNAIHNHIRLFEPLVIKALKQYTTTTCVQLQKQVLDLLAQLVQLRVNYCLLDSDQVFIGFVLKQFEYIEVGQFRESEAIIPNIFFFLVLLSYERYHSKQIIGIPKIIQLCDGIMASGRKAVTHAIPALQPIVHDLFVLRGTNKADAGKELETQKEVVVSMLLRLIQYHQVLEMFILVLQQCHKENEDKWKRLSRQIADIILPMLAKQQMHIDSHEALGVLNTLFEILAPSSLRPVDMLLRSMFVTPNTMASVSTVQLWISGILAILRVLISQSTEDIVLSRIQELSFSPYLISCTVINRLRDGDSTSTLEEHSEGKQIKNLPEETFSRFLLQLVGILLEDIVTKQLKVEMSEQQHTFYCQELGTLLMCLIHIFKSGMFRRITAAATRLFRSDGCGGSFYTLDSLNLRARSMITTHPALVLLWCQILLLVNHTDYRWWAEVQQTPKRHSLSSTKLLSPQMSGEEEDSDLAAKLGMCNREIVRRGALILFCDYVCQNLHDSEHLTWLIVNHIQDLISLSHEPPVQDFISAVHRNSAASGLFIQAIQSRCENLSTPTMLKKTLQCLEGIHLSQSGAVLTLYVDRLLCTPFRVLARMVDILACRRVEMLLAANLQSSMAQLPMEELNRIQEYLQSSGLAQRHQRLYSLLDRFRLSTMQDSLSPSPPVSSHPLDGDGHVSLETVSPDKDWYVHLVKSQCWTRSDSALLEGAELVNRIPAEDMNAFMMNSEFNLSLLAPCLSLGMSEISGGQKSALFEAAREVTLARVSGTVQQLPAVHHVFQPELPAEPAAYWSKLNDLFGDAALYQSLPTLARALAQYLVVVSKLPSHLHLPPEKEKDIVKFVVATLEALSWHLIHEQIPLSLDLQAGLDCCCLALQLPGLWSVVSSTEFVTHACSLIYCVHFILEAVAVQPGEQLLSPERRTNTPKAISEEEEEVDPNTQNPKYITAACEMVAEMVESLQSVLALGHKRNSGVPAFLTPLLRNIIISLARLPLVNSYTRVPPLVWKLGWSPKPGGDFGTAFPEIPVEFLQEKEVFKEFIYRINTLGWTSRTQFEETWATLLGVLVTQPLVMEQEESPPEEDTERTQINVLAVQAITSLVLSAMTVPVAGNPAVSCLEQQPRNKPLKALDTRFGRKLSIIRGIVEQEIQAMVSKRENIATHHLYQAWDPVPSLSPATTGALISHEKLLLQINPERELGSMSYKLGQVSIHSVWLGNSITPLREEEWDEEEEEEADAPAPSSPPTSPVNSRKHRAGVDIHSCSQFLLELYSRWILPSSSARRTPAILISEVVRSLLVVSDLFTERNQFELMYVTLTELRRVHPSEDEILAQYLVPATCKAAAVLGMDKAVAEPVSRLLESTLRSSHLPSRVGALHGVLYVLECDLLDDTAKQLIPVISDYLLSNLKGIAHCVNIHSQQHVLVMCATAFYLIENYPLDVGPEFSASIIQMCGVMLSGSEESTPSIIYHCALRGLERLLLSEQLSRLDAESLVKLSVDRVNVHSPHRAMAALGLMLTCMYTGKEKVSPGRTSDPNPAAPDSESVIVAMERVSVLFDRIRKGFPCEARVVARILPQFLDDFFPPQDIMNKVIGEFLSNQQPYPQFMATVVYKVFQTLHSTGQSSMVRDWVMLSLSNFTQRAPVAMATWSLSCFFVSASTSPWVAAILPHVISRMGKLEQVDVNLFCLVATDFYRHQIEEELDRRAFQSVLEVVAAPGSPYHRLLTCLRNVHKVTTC

Row | SMILES | IC50
1 | N#Cc1cccc(C(=O)Nc2ccc3oc(-c4cccnc4)nc3c2)c1 [3-cyano-N-[2-(pyridin-3-yl)-1,3-benzoxazol-5-yl]benzamide] | < 100 nM
2 | COc1ccc(C(=O)Nc2ccc3oc(-c4cccc(C)c4)nc3c2)cc1 [4-methoxy-N-[2-(3-methylphenyl)-1,3-benzoxazol-5-yl]benzamide] | < 100 nM
3 | COc1ccc(-c2nc3cc(NC(=O)c4ccccc4OC)ccc3o2)cc1 [2-methoxy-N-[2-(4-methoxyphenyl)-1,3-benzoxazol-5-yl]benzamide] | < 100 nM
4 | COc1ccc(C(=O)Nc2ccc3oc(-c4ccc(=O)n(C)n4)nc3c2)nc1 [5-methoxy-N-[2-(1-methyl-6-oxo-1,6-dihydropyridazin-3-yl)-1,3-benzoxazol-5-yl]pyridine-2-carboxamide] | < 100 nM
5 | COc1ccc(/C=C\c2cnc3oc(-c4cccnc4)nc3c2)cc1 [3-{6-[(Z)-2-(4-methoxyphenyl)ethenyl]-[1,3]oxazolo[5,4-b]pyridin-2-yl}pyridine] | < 100 nM
6 | COc1ccc(COc2ccc3oc(-c4ccncc4)cc3c2)nc1 [4-{5-[(5-methoxypyridin-2-yl)methoxy]-1-benzofuran-2-yl}pyridine] | < 100 nM
7 | COc1cncc(C(=O)Nc2ccc3oc(-c4cccnc4)nc3c2)c1 [5-methoxy-N-[2-(pyridin-3-yl)-1,3-benzoxazol-5-yl]pyridine-3-carboxamide] | < 100 nM
8 | N#Cc1cnccc1-c1cc2cc(OCC3=CSC4=NCCN34)ccc2o1 [4-(5-{5H,6H-imidazo[2,1-b][1,3]thiazol-3-ylmethoxy}-1-benzofuran-2-yl)pyridine-3-carbonitrile] | < 100 nM
9 | Cn1ccnc1COc1ccc2oc(-c3ccncc3C#N)cc2c1 [4-{5-[(1-methyl-1H-imidazol-2-yl)methoxy]-1-benzofuran-2-yl}pyridine-3-carbonitrile] | 100 to 500 nM
10 | COc1ccc(/C=C/c2nc3cc(OCc4ccc(OC)cn4)ccc3o2)cc1 [2-[(E)-2-(4-methoxyphenyl)ethenyl]-5-[(5-methoxypyridin-2-yl)methoxy]-1,3-benzoxazole] | < 100 nM
11 | COc1ccc(COc2ccc3oc(-c4ccc(=O)[nH]c4)nc3c2)nc1 [5-{5-[(5-methoxypyridin-2-yl)methoxy]-1,3-benzoxazol-2-yl}-1,2-dihydropyridin-2-one] | < 100 nM
12 | COc1ccc(COc2ccc3oc(-n4ccnc4)nc3c2)nc1 [2-(1H-imidazol-1-yl)-5-[(5-methoxypyridin-2-yl)methoxy]-1,3-benzoxazole] | < 100 nM
13 | c1cncc(COc2ccc3oc(-c4cccnc4)nc3c2)c1 [2-(pyridin-3-yl)-5-(pyridin-3-ylmethoxy)-1,3-benzoxazole] | < 100 nM
14 | COCCOc1cnc(-c2ccc3oc(-c4cccnc4)nc3c2)nc1 [5-[5-(2-methoxyethoxy)pyrimidin-2-yl]-2-(pyridin-3-yl)-1,3-benzoxazole] | < 100 nM
15 | COc1cccc(COc2ccc3oc(-c4cccnc4)nc3c2)c1 [5-[(3-methoxyphenyl)methoxy]-2-(pyridin-3-yl)-1,3-benzoxazole] | < 100 nM
16 | COc1ccc(COc2ccc3oc(N4CCn5ccnc5C4)nc3c2)nc1 [2-{5H,6H,7H,8H-imidazo[1,2-a]pyrazin-7-yl}-5-[(5-methoxypyridin-2-yl)methoxy]-1,3-benzoxazole] | < 100 nM
17 | C1=C(c2cc3cc(OCc4cccnc4)ccc3o2)N2CCN=C2S1 [3-{[(2-{5H,6H-imidazo[2,1-b][1,3]thiazol-3-yl}-1-benzofuran-5-yl)oxy]methyl}pyridine] | < 100 nM
18 | COc1cc(C(=O)Nc2ccc3oc(-c4cccnc4)nc3c2)on1 [3-methoxy-N-[2-(pyridin-3-yl)-1,3-benzoxazol-5-yl]-1,2-oxazole-5-carboxamide] | < 100 nM
19 | COc1ccc(COc2ccc3oc(-c4ccnnc4)nc3c2)nc1 [5-[(5-methoxypyridin-2-yl)methoxy]-2-(pyridazin-4-yl)-1,3-benzoxazole] | < 100 nM
20 | COc1ccc(COC(=O)Nc2ccc3oc(-c4cccnc4)nc3c2)nc1 [(5-methoxypyridin-2-yl)methyl N-[2-(pyridin-3-yl)-1,3-benzoxazol-5-yl]carbamate] | < 100 nM
21 | CNCc1cccc(-c2nc3cc(OCc4ccc(OC)cn4)ccc3o2)c1 [[(3-{5-[(5-methoxypyridin-2-yl)methoxy]-1,3-benzoxazol-2-yl}phenyl)methyl](methyl)amine] | < 100 nM
22 | Cn1cc(-c2cc3cc(OCc4cncnc4)ccc3o2)c(C#N)n1 [1-methyl-4-[5-(pyrimidin-5-ylmethoxy)-1-benzofuran-2-yl]-1H-pyrazole-3-carbonitrile] | < 100 nM

Row | SMILES | IC50
23 | COc1cccnc1C(=O)Nc1ccc2oc(-c3cccnc3)nc2c1 [3-methoxy-N-[2-(pyridin-3-yl)-1,3-benzoxazol-5-yl]pyridine-2-carboxamide] | 100 to 500 nM
24 | O=C(Nc1ccc2oc(-c3cccnc3)nc2c1)c1cccc(Oc2ccccc2)c1 [3-phenoxy-N-[2-(pyridin-3-yl)-1,3-benzoxazol-5-yl]benzamide] | < 100 nM
25 | Cn1cc(C(=O)Nc2ccc3oc(-c4cccnc4)nc3c2)cn1 [1-methyl-N-[2-(pyridin-3-yl)-1,3-benzoxazol-5-yl]-1H-pyrazole-4-carboxamide] | < 100 nM
26 | Cn1cnc(COc2ccc3oc(-c4ccncc4C#N)cc3c2)c1 [4-{5-[(1-methyl-1H-imidazol-4-yl)methoxy]-1-benzofuran-2-yl}pyridine-3-carbonitrile] | < 100 nM
27 | COc1cnc(N2CCN(c3ccc4oc(-c5cccnc5)nc4c3)CC2)nc1 [5-[4-(5-methoxypyrimidin-2-yl)piperazin-1-yl]-2-(pyridin-3-yl)-1,3-benzoxazole] | < 100 nM
28 | Cc1cncc(C(=O)Nc2ccc3oc(-c4cccnc4)nc3c2)c1 [5-methyl-N-[2-(pyridin-3-yl)-1,3-benzoxazol-5-yl]pyridine-3-carboxatmide] | < 100 nM
29 | O=C(Nc1ccc2oc(-c3cccnc3)nc2c1)c1cnc2ccccc2n1 [N-[2-(pyridin-3-yl)-1,3-benzoxazol-5-yl]quinoxaline-2-carboxamide] | < 100 nM
30 | COc1ccc(CNc2ccc3oc(-c4cccnc4)nc3c2)cc1 [N-[(4-methoxyphenyl)methyl]-2-(pyridin-3-yl)-1,3-benzoxazol-5-amine] | < 100 nM
31 | COCCn1cc(COc2ccc3oc(-c4ccncc4C#N)cc3c2)cn1 [4-(5-{[1-(2-methoxyethyl)-1H-pyrazol-4-yl]methoxy}-1-benzofuran-2-yl)pyridine-3-carbonitrile] | < 100 nM
32 | COc1ccc(COc2ccc3oc(N4CCn5cncc5C4)nc3c2)nc1 [2-{5H,6H,7H,8H-imidazo[1,5-a]pyrazin-7-yl}-5-[(5-methoxypyridin-2-yl)methoxy]-1,3-benzoxazole] | < 100 nM
33 | COc1cnc(-c2ccc3oc(-c4cccnc4)nc3c2)nc1 [5-(5-methoxypyrimidin-2-yl)-2-(pyridin-3-yl)-1,3-benzoxazole] | < 100 nM
34 | O=C(Nc1ccc2oc(-c3cccnc3)nc2c1)c1ccc2c(c1)OCO2 [N-[2-(pyridin-3-yl)-1,3-benzoxazol-5-yl]-2H-1,3-benzodioxole-5-carboxamide] | < 100 nM
35 | COc1ccc(COc2cnc3oc(-c4cnccn4)nc3c2)nc1 [2-{6-[(5-methoxypyridin-2-yl)methoxy]-[1,3]oxazolo[5,4-b]pyridin-2-yl]pyrazine] | < 100 nM
36 | O=C(Nc1ccc2oc(-c3cccnc3)nc2c1)c1ccc2nccnc2c1 [N-[2-(pyridin-3-yl)-1,3-benzoxazol-5-yl]quinoxaline-6-carboxamide] | < 100 nM
37 | BrC1=C(c2cc3cc(OCc4cccnc4)ccc3o2)N2CCN=C2S1 [3-{[(2-{2-bromo-5H,6H-imidazo[2,1-b][1,3]thiazol-3-yl}-1-benzofuran-5-yl)oxy]methyl}pyridine] | < 100 nM
38 | COc1ccc(COc2ccc3oc(C4Cc5ccccc5O4)nc3c2)nc1 (stereo not shown) [2-(2,3-dihydro-1-benzofuran-2-yl)-5-[(5-methoxypyridin-2-yl)methoxy]-1,3-benzoxazole] | < 100 nM
39 | COc1ccc(-c2ccc3oc(-c4cccnc4)nc3c2)cc1 [5-(4-methoxyphenyl)-2-(pyridin-3-yl)-1,3-benzoxazole] | < 100 nM
40 | COc1cccc(C(=O)Nc2ccc3oc(-c4cccnc4)nc3c2)n1 [6-methoxy-N-[2-(pyridin-3-yl)-1,3-benzoxazol-5-yl]pyridine-2-carboxamide] | < 100 nM
41 | Brc1ccc(COc2ccc3oc(-c4cccnc4)nc3c2)nc1 [5-[(5-bromopyridin-2-yl)methoxy]-2-(pyridin-3-yl)-1,3-benzoxazole] | < 100 nM
42 | COc1ccc(COc2ccc3oc(-c4ccncn4)nc3c2)nc1 [5-[(5-methoxypyridin-2-yl)methoxy]-2-(pyrimidin-4-yl)-1,3-benzoxazole] | < 100 nM
43 | COc1ccnc(C(=O)Nc2ccc3oc(-c4ccc(=O)n(C)n4)nc3c2)c1 [4-methoxy-N-[2-(1-methyl-6-oxo-1,6-dihydropyridazin-3-yl)-1,3-benzoxazol-5-yl]pyridine-2-carboxamide] | < 100 nM
